Results taken from article PMC8097335, “A High‐Affinity Calmodulin‐Binding Site in the CyaA Toxin Translocation Domain is Essential for Invasion of Eukaryotic Cells” (Advanced Science, 2021).

Experiments:
CaM [1] = assay: Size exclusion chromatography of P454, H and AC364 with CaM in the presence of CDZ; assay type: binding; conditions: SEC, buffer B, CaM 15 µM, CDZ 40 µM, tryptophan fluorescence
Description: (§1) T PCK-treated trypsin (Millipore Sigma, Burlington, MA, USA) for 10 min at 30°C to digest the adenylate cyclase that remained at the external surface of the erythrocytes. A 5-fold excess of soybean trypsin inhibitor was added and cells were washed with buffer A and lysed with 0.1% Tween 20. The activity protected from trypsin digestion corresponds to the internalized toxin. Activities are expressed as percentages of total toxin added to the erythrocytes (taken as 100%) and represent average values from at least three independent measurements. One unit of CyaA activity corresponds to 1 μmol of cAM P formed per min at 30°C and pH 8.0. The bound and internalized AC activities measured with the CyaA recombinant proteins were normalized to that of the WT CyaA toxin.
For the CyaA intoxication experiments in the presence of calmidazolium (CDZ), in order to minimize the cell exposure to this potent CaM inhibitor, we performed a two-step intoxication assay as described originally by Rogel and Hanski 19. For this, the erythrocytes (5 x 10^8 cells/mL) were in a first step incubated with CyaA (1 μg/mL, 5.6 nM) in buffer A plus 2 mM CaCl2 at 4 °C for 30 min. In these conditions, the toxin can bind to the cell membrane but cannot translocate across membrane 19. […]
(§2) then resuspended in cold buffer A plus 2 mM CaCl2 and split in two fractions. […] After addition of soybean trypsin inhibitor, the cells were washed with buffer A then lysed with 0.1% Tween 20 and the internalized AC activity protected from trypsin digestion was measured and expressed as a percentage of bound AC activity. […]
The SEC experiments were performed on a TSKgel G3000SW 7.5 mm ID * 30 cm - column equilibrated in buffer B at a flow rate of 0.6 mL/min at RT. The elution profiles were measured by absorbance at 280 nm, conductivity and by tryptophan fluorescence on a FP750 fluorometer (Ex.: 280 nm; Em.: 340 nm; bandwidths 10/10 nm ) equipped with a on -line cell .
(§3) Tryptophan fluorescence is used for the SEC profiles because this allows monitoring the […]
weak fluorescence signal. […]
fluorescence signal. […]

[2] = tested on: adenylate cyclase (AC384GK, catalytic domain of CyaA); assay: CaM-dependent adenylate cyclase activity with or without calmidazolium; assay type: biochemical, Bordetella pertussis; conditions: CDZ 10 µM, assayed in the presence of 1 µM CaM
Description: as §1, with “CyaA toxin. […]” for “CyaA toxin.”
as §2, §3
Figure S15: CaM-dependent activation of AC with or without calmidazolium (C D Z ) . […] Th e adenylate cyclase activity is expressed as mol of cAMP per sec per mol of AC384GK. […]

sheep erythrocytes = assay: Two-step CyaA intoxication assay with or without calmidazolium; assay type: cell-based; conditions: CyaA […] bound at 4 °C 30 min, 10 μM CDZ added just prior to shift from 4 to 37 °C; 2, 5, 10 min; three independent replicates
Description: as §1, with “CyaA toxin. […]” for “CyaA toxin.”
as §2, §3

holo-CaM = conditions: cited from earlier work
CaM [3] = conditions: quoted without reference; read-out: Kd of AC:CaM; cited from earlier work

Compound	Effect of CDZ on CaM association with the AC domain (CaM [1]; AC364 10 µM)	Effect of CDZ on the H:CaM complex (CaM [1]; H 10 µM)	Effect of CDZ on CaM association with P454 (CaM [1]; P454 10 µM)	Effect on AC enzymatic activity [2]	Amount of internalized AC with CDZ (sheep erythrocytes)	Ki (holo-CaM)	Kd (CaM [3])
Clc1ccc(C(c2ccc(Cl)cc2)n2cc[n+](CC(OCc3ccc(Cl)cc3Cl)c3ccc(Cl)cc3Cl)c2)cc1 (stereo not shown) [CDZ, Calmidazolium chloride]	not with the AC domain	partially inhibited	can specifically inhibit	no inhibitory effect	drastically reduced	10 to 50 nM	–
AC: N-terminal adenyl cyclase catalytic domain of CyaA, first 364 residues	–	–	–	–	–	–	~0.1 nM
